From patent publication US12331136B2, “Anti-aging sturgeon roe tetrapeptide and preparation method and application thereof” (Shenzhen Porshealth Bioengineering Co., Ltd., priority 2023, dated 2025) come the findings set out here.

The series in a line: Absorption experiment of NLPL in rats (blood LC-MS/MS). Format: in vivo. To be noted: SD rats, intragastric 50 mg/kg bw. On the procedure: In this research, SD rats are used and divided into three groups: a normal group and sturgeon NLPL (SEQ ID NO: 9) groups (50 mg/kg bw of daily dosage). At 12 h before the experiment, the rats are fasted but allowed to drink water. At 15 min, 45 min, 90 min, 180 min and 360 min after intragastric administration, all rats are anesthetized with 3% pentobarbital sodium, subjected to blood sampling through the abdominal aorta, and then euthanized. The polypeptide samples are prepared by solid phase synthesis and desalted.
• (1) The required samples are taken out, thawed, and mixed uniformly by vortex. • (2) 40 μL of sample is taken from the mixed sample, added with 120 μL of methanol, then shaken for 10 min, and centrifuged at low temperature for 10 min. • (3) 70 μL of supernatant is taken out from the centrifuged sample for subsequent determination. 4.2.2.2 Preparation of Standard Solution
Chromatographic separation is performed by using Waters ACQUITY UPLC I-CLASS ultra-high performance liquid chromatography equipment. Specific conditions are as follows: chromatographic column: Waters UPLC HSS T3 (1.8 μm, 2.1 mm×100 mm)—mobile phase: phase A (water, 0.1% formic acid), phase B (methanol)—flow rate: 0.3 mL/min-injection volume: 5.0 μL-column temperature: 40° C.—single sample analysis time: 8 min.
Mass spectrometric detection is performed by using Waters XEVO TQ-XS series four-pole mass spectrometer. Specific conditions are as follows: positive ion source voltage: 3.0 kV-cone well voltage: 30 V-solvent removal temperature: 500° C.—solvent removal gas flow rate: 1000 L/h-cone well gas flow rate: 150 L/h.
Data are expressed in the form of Mean±SD. Data processing and significance analysis are performed by Graphpad. P<0.05 and P<0.01 indicate significant difference and extremely significant difference in data. The target peak area in the polypeptide metabolism data is calculated by using TargetLynx software, and an allowable error of retention time is 15 s. The calculation of concentration is based on a standard curve method to obtain quantitative results.

Residues, ends and D or L forms follow the SMILES beside them.

Take `CC(C)C[C@H](NC(=O)[C@@H]1CCCN1C(=O)[C@H](CC(C)C)NC(=O)[C@@H](N)CC(N)=O)C(=O)O` [NLPL] (H-NLPL-OH; N-terminus and C-terminus assumed): the “time at which NLPL content in the blood reaches a maximum” value is given as not above 45 min. Also, where the note is “rat, blood, po, during the measurement time (to 360 min)”, the AUC was 7.14 ng·h/mL. Moreover, the Cmax (rat, blood, po, read-out: maximum NLPL content in the blood) worked out at 1.65 ± 1.75 ng/mL.

The term AUC denotes concentration integrated over time. Low values mean less exposure, high ones more exposure.
